The text below walks through data of patent publication US20100184703A1, “USE OF PEPTIDE DERIVATIVES FOR TREATING PATHOLOGIES RESULTING FROM ISCHEMIA” (CHIESI FARMACEUTICI S.p.A., priority 2007, published 2010).

Entries after “also recorded” stand apart in the source; their conditions may differ. Peptide text beside a SMILES is read from it. * marks the point of attachment. X1 = COC(=O)CC(N*)C(=O)COc1c(F)cccc1F; Quinaldoyl = O=C(c1ccc2ccccc2n1)*

Test [1] concerns the target T1, caspase-2 (Rattus norvegicus, UniProt P55215).
T1 construct: Each fragment of tissue was rapidly frozen in liquid nitrogen and kept at −80° C; from tissue; host or cells: rat myocardium (left ventricle, right ventricle, septum, apex) extracts
T1 sequence (P55215 170-325 limits assumed): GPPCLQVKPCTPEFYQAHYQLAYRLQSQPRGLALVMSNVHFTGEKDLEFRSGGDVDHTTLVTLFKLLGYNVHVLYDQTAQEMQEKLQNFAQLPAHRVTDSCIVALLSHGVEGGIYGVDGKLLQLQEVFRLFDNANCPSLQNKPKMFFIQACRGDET
T1 sequence (P55215 348-452 limits assumed): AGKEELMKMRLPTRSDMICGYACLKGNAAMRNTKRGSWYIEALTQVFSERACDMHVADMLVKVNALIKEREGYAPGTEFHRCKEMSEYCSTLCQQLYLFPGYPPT
Description: Dosage of caspase-2 activity in myocardial tissue, reperfusion ischemia (IR) model. Format: in vivo. Particulars: administered 15 min before the reperfusion, VGZI and septum.

A further test concerns TNFα, IL1β, IL10. Put plainly: Multiplex assay (Luminex) of circulating cytokines after ischemia-reperfusion. Format: in vivo, rat. Particulars: IR model; for circulating level of TNFα: injected 15 min prior to the reperfusion, compared to sham-operated; for IL-1β elevation / IL-10 elevation: within the first 24 hours of reperfusion. The method, then:
Another series of experiments was conducted in the rat model of ischemia-reperfusion. Ischemia and reperfusion is well known to trigger an acute inflammatory process in animal model as well as in human. In our rat model, at the euthanasia, blood sample were collected in order to measure the inflammatory response on sera. This was performed by multiplex assay (Luminex technology). Three parameters were simultaneously measured at various time after myocardial reperfusion the pro inflammatory cytokines TNFα and IL1β as well as the anti-inflammatory cytokine IL10. […] B-C. […] In summary, caspase 2 inhibition prevents the acute inflammatory response occurring during the first 24 hours after myocardial reperfusion. *p<0.05 compared to sham-operated animals, n≧5 animals.

Test [2] relates to ventricular cardiomyocytes. Description: Patch-clamp electrophysiological recordings on ventricular cardiomyocytes of PMI rats. Format: in vivo, rat. The settings on record: for density of transitory current coming out (Ito): cardiomyocytes of the sub-epicardic layer; for membrane capacity (cellular size; hypertrophy induced by myocardial ischemia): cardiomyocytes after 4-5 months. Here is the method: The isolated ventricular cardiomyocytes were obtained by enzymatic dissociation with collagenase by Langendorf reversed perfusion (Fauconnier, 2005). The rats were heparinized (0.2 ml, GIBCO® 1000 Ul/ml) and anaesthetized by intraperitoneal injection of pentobarbital ([…], Sanofi Santé, France). The heart was rapidly excised and a retrograde perfusion through the aorta, was performed for 5 min with a calcium-free washing solution (in mM: NaCl 117, KCl 5.7, NaHCO3 4.4, KH2PO4 1.5, MgCl2 1.7, HEPES 21, glucose 11, taurine 20, pH 7.2 (adjusted with NaOH) and O2-bubbled) at 37° C. The solution was then replaced by a similar medium containing 1.3 mg·ml^−1 of collagenase of type IV (Worthington, Freehold, N.J., USA) and perfused during 20-30 min. The heart was then perfused with the initial solution containing 2,3-butanedione monoxime as inhibitor of the muscular contraction (15 mM BDM). The ventricles were then delicately separated and, by mechanic stirring, the cardiomyocytes were liberated in the medium. The dissociated cells were washed in the same solution wherein increased concentrations of CaCl2 were added (0.3, 1, 1.8 mM). The cells of the sub-epicardial layer (EPI) were separated from the sub-endocardial layer (ENDO) by simple manual dissection.
The potentials of action (PA) and ionic currents were measured by the patch-clamp technique in whole cell configuration using an amplifier RK 400 (Biologic, Claix France) interfaced by a analogical/numerical converter DIGIDATA 1200 (Axon Instrument, Sunnyvale, Calif., USA) controlled by a PC. The acquisition and analysis of the data were realized with pCLAMP program (Axon Instrument, Sunnyvale, Calif., USA). The sampling frequency was of 10 KHz and the signals filtrated at 3 KHz. Pipettes comprised between 1 and 1.5 MΩ were used to ensure a good quality of voltage. For the measure of the potentials of action, the pipettes were filled with an internal solution (in mM: 130 KCl, 25 HEPES, 3 MgATP, 0.4 NaGTP, and 0.5 EGTA; the pH was adjusted at 7.2 with KOH). The external medium was composed of (in mM): 135 NaCl, 1 MgCl2, 4 KCl, 11 glucose, 2 HEPES, and 1.8 CaCl2; the pH was adjusted to 7.2. with NaOH.
The PA were started by injections of current of 0.2 ms at an intensity slightly higher than the supraliminal intensity threshold. The transitory potassium current coming out (Ito) was measured with the same internal and external solution (10 μM of tetrodotoxine (TTX) and 2 mM of cobalt chloride were added to the external medium to become independent from the […] and calcic currents, respectively. Ito was measured from depolarizing pulses.
The patch-clamp electrophysiological technique enables the membrane capacity (which reflects the cellular size) to be measured (this capacity reflects the cellular size). The results obtained with the above animals groups confirm the hypertrophy induced by the myocardial ischemia.

The test system of test [3] is single ventricular cardiomyocytes. Put plainly: Ca2+ handling and cell shortening of cardiomyocytes isolated after ischemia-reperfusion. Format: in vivo, rat. Particulars: 30 min ischemia, 10 days reperfusion; for sarcoplasmic reticulum Ca2+ load: 10 mM caffeine, versus sham-operated; for amplitude of cytosolic Ca2+ transients: 0.5 Hz field stimulation. Here is the method: Experiments were carried out on single ventricular cardiomyocytes isolated from rats after 30 minutes of myocardial ischemia followed by 10 days of reperfusion. Cardiomyocytes were loaded with a fluorescent calcium indicator (Fluo4) in order to measure calcium transient evoked by 0.5 Hz field stimulation. Cell shortening was also simultaneously recorded as an index of cardiomyocyte contraction. […] These deleterious effects classically reported by others in similar experimental conditions Under TRP601 or QV-D-oph treatment Ca^2+ transients amplitude was unchanged B. Similarly, Ca^2+ release kinetics estimated by the amplitude/time to peak (TT) ratio was slowed down in cardiomyocytes of untreated animals, whereas under TRP601 or QV-D-oph treatment Ca^2+ release was unaffected. C. Altered Ca^2+ transient kinetics in vehicle-treated animal are accompanied by a decrease in sarcoplasmic reticulum Ca^2+ load (estimated by application of 10 mM caffeine). […] (*p<0.05 compared to sham-operated animals, n≧5 animals).

Test [4] deals with T1, caspase-2. Put plainly: Dosage of caspase-2 activity in myocardial tissue, chronic ischemia (PMI) model. Format: in vivo. The settings on record: PMI 72 h; for caspase-2 activity: pre-treated rats, left ventricle (VG) and septum, 1 mg/kg.

As to `COC(=O)CC(NC(=O)[C@H](C)NC(=O)[C@@H](NC(=O)[C@H](CC(=O)OC)NC(=O)[C@@H](NC(=O)c1ccc2ccccc2n1)C(C)C)C(C)C)C(=O)COc1c(F)cccc1F` (stereo partly drawn) [D1, (3S,6S,9S,12S)-methyl 15-(2-(2,6-difluorophenoxy)acetyl)-3,9-diisopropyl-6-(2-methoxy-2-oxoethyl)-12-methyl-1,4,7,10,13-pentaoxo-1-(quinolin-2-yl)-2,5,8,11,14-pentaazaheptadecan-17-oate] (Quinaldoyl-VD(OMe)VA-X1), on caspase-2 [1], the caspase-2 activity entry is listed as “normalization of the activity; also recorded: specifically inhibits”. Also, in the test on TNFα, IL1β, IL10, the “circulating level of TNFα” value is recorded as “not significantly different”, the IL-1β elevation entry is on record as “prevented” and the IL-10 elevation entry is “prevented”. Further, the “density of transitory current coming out (Ito)” value in test [2] was “very preserved; also recorded: significantly restored”. In addition, in test [2] (pre-treatment), the “membrane capacity (cellular size; hypertrophy induced by myocardial ischemia)” value is “highly prevented”. In addition, the “potential of action (PA) duration remodeling, transmural EPI/ENDO gradient” value in test [2] (pre-treatment, sub-epicardial and sub-endocardial cardiomyocytes) is “total absence of PA remodeling”. In addition, in test [3], the “Ca2+ release kinetics (amplitude/time to peak ratio)” value was “unaffected”, the cell shortening entry is given as “avoided cell shortening decreasing”, the “sarcoplasmic reticulum Ca2+ load” value is given as “not significantly different” and the “amplitude of cytosolic Ca2+ transients” value is “unchanged”. For the same compound, the caspase-2 activity entry on caspase-2 [4] was “inhibited”. Also, on caspase-2 [4] (right ventricular (RV)), the caspase-2 basal activity entry is “weak inhibition”.

Turning to `CC(C)[C@H](NC(=O)c1ccc2ccccc2n1)C(=O)N[C@@H](CC(=O)O)C(=O)COc1c(F)cccc1F` [Q-VD-OPH], the caspase-2 activity result on caspase-2 [1] is “inhibits the activity of both caspases”. Moreover, the caspase-2 activity entry at caspase-2 [1] (listed as QVDOPH) is listed as “normalization of the activity”. For the same compound, in the test with TNFα, IL1β, IL10, the “circulating level of TNFα” value is on record as “not significantly different”, the IL-1β elevation result was “prevented” and the IL-10 elevation entry is “prevented”. For the same compound, the “density of transitory current coming out (Ito)” value in test [2] is reported as “do not present any improvement; also recorded: no effect”. The “membrane capacity (cellular size; hypertrophy induced by myocardial ischemia)” value in test [2] (pre-treatment) was “has not effect”. In test [3], the “Ca2+ release kinetics (amplitude/time to peak ratio)” value is given as “unaffected”, the cell shortening result is listed as “avoided cell shortening decreasing”, the “sarcoplasmic reticulum Ca2+ load” value is reported as “not significantly different” and the “amplitude of cytosolic Ca2+ transients” value is “unchanged”. The caspase-2 activity result on caspase-2 [4] was “inhibited”.
